Assay results as given in patent US20220177459A1, “AROMATIC AMINE COMPOUND AND USE THEREOF IN PREPARATION OF AR AND BRD4 DUAL INHIBITORS AND REGULATORS” (HINOVA PHARMACEUTICALS INC., priority 2019, published 2022).

Key:
LNCaP/AR cells = assay: Inhibition of proliferation of prostate cancer cells LNCaP/AR (CCK-8); assay type: cell-based; settings: 144 h, 6 days culture, CCK-8, OD 450 nm, read-out: IC50 (μM), inhibitory activity on prostate cancer cell LNCap/AR
Method: 1. Biological determination of the inhibitory effect on the proliferation of prostate cancer cells LNCaP/AR
Cell culture medium: RIPM1640 media, 10% FBS, 1% Pen Strep;
(§1) 1) LNCaP/AR cells were subcultured in cell culture medium, and the cells in good growth condition were seeded in a 96-well plate, with 80 μL per well (i.e. 1000 cells per well), and cultured overnight in a 37° C., 5% CO2 cell incubator.
2) The drug was prepared with dimethylsulfoxide (DMSO) as a 10 mM stock solution.
(§2) Immediately before use, the stock solution was diluted 3 times with DMSO, and then diluted as a 3-fold gradient to obtain 9 concentration gradients. Then, the compound of each concentration was diluted 200 times with the culture media (to ensure that the DMSO concentration in the culture system was 0.1%), and two multiple holes were set for each concentration. 20 μL of the diluted compound was added to the cell culture well (with a final concentration of 10 μM, 3.3 μM, 1.1 μM . . . ), and then shook gently to mix. In addition, three negative control wells with only cells and three blank control wells with only culture medium were included (6 wells being each added with DMSO diluted 200 times with 20 μL culture medium).
(§3) 1) After culturing for 6 days, 10 μL of CCK-8 was added to each well and continued culturing for 1 hour in a 37° C., 5% CO2 cell incubator.
(§4) 2) The absorbance (OD value) was measured at 450 nm using a multifunctional microplate reader.
(§5) 3) The data were analyzed by the Dose-response-inhibition equation in the software GraphPad Prism5, and the IC50 value was obtained.

VCaP cells = assay: Inhibition of proliferation of other prostate cancer cells: VCaP; assay type: cell-based; settings: Homo sapiens, same method as LNCaP/AR
Method: as §1, §2, §3, §4, §5
(§6) 2. Biological determination of the inhibitory effect on the proliferation of other prostate cancer cells
(§7) The inhibitory activity of the compound according to the present invention on other drug-resistant prostate cancer cells was measured by the same method as described above, in which VCaP and 22RV1 cells were commercially available.

22RV1 cells = assay: Inhibition of proliferation of other prostate cancer cells: 22RV1; assay type: cell-based; settings: Homo sapiens, same method as LNCaP/AR
Method: as §1, §2, §3, §4, §5, §6, §7

androgen receptor (AR) = target: T1, androgen receptor (AR) (Homo sapiens, UniProt P10275); assay: Inhibitory activity on the function of androgen receptor (AR), luciferase reporter in transfected cells; assay type: cell-based; settings: transfected with AR and pGL4.36, testosterone 2 nM, Steady-Glo
T1 construct: host or cells: HEK293
T1 sequence (P10275 1-920): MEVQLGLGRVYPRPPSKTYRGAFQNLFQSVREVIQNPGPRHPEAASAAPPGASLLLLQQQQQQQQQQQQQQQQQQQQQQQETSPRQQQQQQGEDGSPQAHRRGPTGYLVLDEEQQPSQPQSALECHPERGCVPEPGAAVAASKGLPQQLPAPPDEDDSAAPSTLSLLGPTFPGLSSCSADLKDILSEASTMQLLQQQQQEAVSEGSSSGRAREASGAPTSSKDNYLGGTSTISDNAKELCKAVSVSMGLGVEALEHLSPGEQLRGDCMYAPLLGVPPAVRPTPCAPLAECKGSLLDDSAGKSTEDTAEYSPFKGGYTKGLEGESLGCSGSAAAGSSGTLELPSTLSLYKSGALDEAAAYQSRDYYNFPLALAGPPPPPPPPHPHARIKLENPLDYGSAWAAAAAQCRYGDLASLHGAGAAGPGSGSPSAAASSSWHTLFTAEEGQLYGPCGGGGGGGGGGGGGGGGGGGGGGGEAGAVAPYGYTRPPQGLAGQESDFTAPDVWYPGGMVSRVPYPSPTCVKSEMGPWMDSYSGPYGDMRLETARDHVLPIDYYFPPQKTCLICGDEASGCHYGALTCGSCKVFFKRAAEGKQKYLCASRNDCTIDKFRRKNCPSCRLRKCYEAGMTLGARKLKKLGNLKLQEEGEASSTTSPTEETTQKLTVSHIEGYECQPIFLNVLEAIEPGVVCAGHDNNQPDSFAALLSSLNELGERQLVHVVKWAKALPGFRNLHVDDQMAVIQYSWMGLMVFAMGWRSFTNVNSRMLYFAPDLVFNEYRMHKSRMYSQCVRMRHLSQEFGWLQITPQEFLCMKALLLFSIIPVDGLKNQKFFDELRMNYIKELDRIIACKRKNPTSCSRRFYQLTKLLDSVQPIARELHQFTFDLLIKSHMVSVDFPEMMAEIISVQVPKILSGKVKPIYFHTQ
Method: Experimental Example 2 the Inhibitory Activity of the Compound According to the Present Invention on the Function of Androgen Receptor (AR)
Androgen receptor clone (Origene, Cat. No. RC235415)
pGL4.36 vector (Promega, Cat. No. E1360)
1) The cell suspension was diluted with the culture medium for seeding cells to a concentration of 4.0×10^5 cells/ml, for plating and adding transfection reagents.
2) The diluted cell suspension was inoculated into a cell culture plate, with 100 μL per well, and the plate was placed in a cell incubator and cultured overnight.
3) The transfection reagent was prepared as 10 μL/well, and added into the cell culture plate after 15 min at room temperature, then the plate was placed in a cell incubator and cultured overnight.
4) The compound was diluted by a 3-fold gradient with TECAN sampler, to obtain 8 concentration gradients, and the final DMSO concentration was 0.25%. The diluted compound was cultured in a 37° C. incubator for 30 min.
5) 250 nL of testosterone at a final concentration of 2 nM was added to the control well with an […] sampler, placed in a cell incubator, and cultured overnight.
6) Steady-Glo was added at 100 μL/well to the cell culture plate, and then the plate was left at room temperature for 15 min, followed by reading on Envision.
The data were analyzed according to the formula % Effect=(Sample value−LC)/(HC−LC)*100, using XL-fit software (provided by Business Solutions Ltd., version number XL fit 5.0). The inhibition rate of each compound against androgen receptor (AR) was calculated, and the half-inhibitory concentration IC50 of each compound against androgen receptor (AR) was further calculated.

BRD4 (D1+D2) protein = target: T2, BRD4 (D1+D2) protein (Homo sapiens, UniProt O60885); assay: HTRF binding to BRD4 (D1+D2) protein; settings: BRD4(1,2), 2 h at room temperature, read-out: IC50 (μM), inhibitory activity on BRD4
T2 construct: purchased BPS 31044
Excerpt: Homogeneous time-resolved fluorescence technique (HTRF) was used to detect the binding effect of compound to BRD4 (D1+D2) protein.
Experimental materials: • BRD4(1,2) (BPS, Cat. No. 31044), • I-CBP 112 (MCE, Cat. No. HY-19541), • (+)-JQ1 (BPS, Cat. No. 27402).
Using homogeneous time-resolved fluorescence method, the detection steps are as follows:
1. According to the layout of the detection plate, the test compound was gradiently diluted on the Echo plate, and the final dilution concentration of DMSO was 0.1%.
2. The compound or DMSO was transferred to the 384-well detection plate with the Echo automatic sampler.
3. Two-fold concentration of protein and peptide mixture was added to the detection plate.
4. Two-fold concentration of the detection mixture was added to the detection plate, and shook for 30 s.
5. Incubating for 2 h at room temperature.
6. The fluorescence signal was read on the Envision multifunctional microplate reader (excitation wavelength at 340 nm; emission wavelength at 615 nm and 665 nm).
1. The experimental data were entered into an Excel file, and equation (1) was used to calculate the inhibition rate:
Inh %=(Max−Signal)/(Max−Min)*100 Equation (1)
2. The obtained data were input into GraphPad software, and equation (2) was used to calculate the IC50 value.
Y=Bottom+(Top−Bottom)/(1+10^((LogIC50−X)*Hill Slope)) Equation (2)
wherein, Y axis is the inhibition rate, while X axis is the compound concentration.

Structure (SMILES)	IC50 (LNCaP/AR cells) [µM]	IC50 (VCaP cells) [µM]	IC50 (22RV1 cells) [µM]	IC50 (androgen receptor (AR)) [µM]	IC50 (BRD4 (D1+D2) protein) [µM]
CCN(c1ccc(-n2ccnc2)c(C(F)(F)F)c1)c1cc(-c2c(C)noc2C)ccc1C [Compound 32]	1.4	0.98	3.5	–	–
CCN(c1ccc(C(C)(C)C#N)cc1)c1cc(-c2c(C)noc2C)ccc1C [Compound 110]	0.93	–	–	1.6	–
CCN(c1ccc(C#N)c(Cl)c1)c1cc(-c2c(C)nn(C)c2C)ccc1C [Compound 2]	0.51	0.78	5.2	0.78	–
CCN(c1ccc(-n2cnnc2)cc1)c1cc(-c2c(C)noc2C)ccc1C [Compound 34]	0.95	1	2.58	–	–
CCN(c1ccc(-n2cnc(C)c2)cc1)c1cc(-c2c(C)noc2C)ccc1C [Compound 26]	1.14	1.16	4.08	–	–
CCN(c1ccc(F)c(-n2ccnc2)c1)c1cc(-c2c(C)noc2C)ccc1C [Compound 83]	–	1.27	5.2	0.83	6.7

Further molecules by falling IC50 (LNCaP/AR cells), results first:

IC50 (LNCaP/AR cells) [µM]	IC50 (VCaP cells) [µM]	IC50 (22RV1 cells) [µM]	IC50 (androgen receptor (AR)) [µM]	IC50 (BRD4 (D1+D2) protein) [µM]	Structure (SMILES)
0.9	2.27	> 10	–	–	CCN(c1ccc(-n2ccnc2)c(Cl)c1)c1cc(-c2c(C)noc2C)ccc1C [Compound 30]
0.82	0.75	7.75	1.7	1.9	CCN(c1ccc(-n2ccnn2)c(Br)c1)c1cc(-c2c(C)noc2C)ccc1C [Compound 45]
0.75	0.88	2.41	–	–	CCN(c1ccc(-n2ccnn2)cc1)c1cc(-c2c(C)noc2C)ccc1C [Compound 33]
0.61	–	0.63	4.9	–	CCN(c1ccc(Br)cc1)c1cc(-c2c(C)noc2C)ccc1C [Compound 116]
0.54	1.35	9.37	2.1	6.3	CCN(c1ccc(-n2ccnc2)c(Br)c1)c1cc(-c2c(C)noc2C)ccc1C [Compound 31, N-(3-bromo-4-(1H-imidazol-1-yl)phenyl)-5-(3,5-dimethylisoxazol-4-yl)-N-ethyl-2-methylaniline]
0.49	1.22	5.6	0.45	–	CCN(c1ccc(-n2ccnc2)c(F)c1)c1cc(-c2c(C)noc2C)ccc1C [Compound 29]
0.38	0.99	3.77	0.89	4.1	CCN(c1ccc(-n2ccnc2C)cc1)c1cc(-c2c(C)noc2C)ccc1C [Compound 27]
0.14	–	0.27	1.6	–	CCN(c1ccc(C2(C#N)CC2)cc1)c1cc(-c2c(C)noc2C)ccc1C [Compound 111, 1-(4-((5-(3,5-dimethylisoxazol-4-)-2-methylphenyl)(ethyl)amino)phenyl)cyclopropanecarbonitrile]
